Test results reported in PMC11530593, “Structural mechanism of human HCN1 hyperpolarization-activated channel inhibition by ivabradine” (The Journal of Biological Chemistry, 2024).

Molecular target: T1, WT hHCN1 (Homo sapiens, UniProt O60741)
T1 construct: Full-length WT or mutant human HCN1 were cloned into the pcDNA3.1 vector; expressed in transfected cells; host or cells: HeLa cells, pcDNA3.1 vector, transient lipofection
T1 sequence (O60741 1-890): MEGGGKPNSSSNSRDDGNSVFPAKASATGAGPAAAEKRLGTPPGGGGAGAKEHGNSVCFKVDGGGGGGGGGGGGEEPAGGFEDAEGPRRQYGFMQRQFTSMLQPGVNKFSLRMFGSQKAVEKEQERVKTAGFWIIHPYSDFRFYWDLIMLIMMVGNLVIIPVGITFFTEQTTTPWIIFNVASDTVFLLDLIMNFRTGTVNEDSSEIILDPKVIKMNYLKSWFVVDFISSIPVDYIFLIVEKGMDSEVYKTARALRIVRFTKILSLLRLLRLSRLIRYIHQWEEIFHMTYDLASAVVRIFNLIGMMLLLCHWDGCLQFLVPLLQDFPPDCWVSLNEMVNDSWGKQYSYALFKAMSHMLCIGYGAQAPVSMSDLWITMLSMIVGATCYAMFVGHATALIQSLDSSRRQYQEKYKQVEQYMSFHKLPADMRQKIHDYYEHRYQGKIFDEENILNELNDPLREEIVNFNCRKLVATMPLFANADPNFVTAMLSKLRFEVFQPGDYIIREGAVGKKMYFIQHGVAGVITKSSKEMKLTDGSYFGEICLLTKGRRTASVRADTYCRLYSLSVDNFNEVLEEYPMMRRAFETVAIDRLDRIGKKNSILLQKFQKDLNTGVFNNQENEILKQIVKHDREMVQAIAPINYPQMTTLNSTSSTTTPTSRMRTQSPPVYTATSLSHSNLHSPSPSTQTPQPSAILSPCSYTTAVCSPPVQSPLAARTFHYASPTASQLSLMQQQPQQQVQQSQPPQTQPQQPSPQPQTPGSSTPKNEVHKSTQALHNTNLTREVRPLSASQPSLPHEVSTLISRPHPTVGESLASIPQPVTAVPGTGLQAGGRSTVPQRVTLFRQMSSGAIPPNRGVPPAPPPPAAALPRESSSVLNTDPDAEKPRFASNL
Assay: Whole-cell patch-clamp, Ih inhibition in transfected HeLa cells
Format: cell-based
Details: membrane potential -140 mV, read-out: half-maximal inhibitory concentration (IC50) of Ih inhibition
Experimental: The electrophysiological characteristics of WT hHCN1 were recorded using whole-cell patch-clamp. […] Activation of the HCN1 channel occurred in response to membrane hyperpolarization.
Full-length WT or mutant human HCN1 were cloned into the pcDNA3.1 vector for electrophysiological experiments. HeLa cells (from Thermo Fisher Scientific) cultured in Dulbecco's modified Eagle's medium (from Solarbio Life Science) + 10% fetal bovine serum (from ExCell Bio) at 37 °C were transiently transfected using lipofection, and whole-cell patch-clamp recordings were obtained using the Axon 200B amplifier (Molecular Devices) and clampex software (https://www.moleculardevices.com/products/axon-patch-clamp-system/acquisition-and-analysis-software/pclamp-software-suite), 36 to 48 h posttransfection. The extracellular solution contained 110 mM NaCl, 0.5 mM MgCl2, 1.8 mM CaCl2, 5 mM Hepes, 30 mM KCl, and pH was adjusted to 7.4 with NaOH, while the pipette solution contained 130 mM KCl, 10 mM NaCl, 0.5 mM MgCl2, 1 mM EGTA, 5 mM Hepes, and pH was adjusted to 7.4 with KOH. The recordings were performed at room temperature, voltage-clamp mode, and filtered at 1 kHz. The sampling frequency was 10 kHz, and the series resistance was limited to 5 MΩ. To elicit channel currents, step pulses of 3 s duration ranging from −180 mV to −30 mV were applied, followed by a step to −180 mV lasting 1.25 s. The tail currents evoked by the second step were used to determine the voltage-dependent activation curves and calculate the midpoint of activation potential (V1/2). The half maximal inhibitory concentration (IC50) of drugs was determined by recording currents at a pulse of −140 mV and analyzing current amplitudes at varying drug concentrations. The IC50 value was calculated using the Hill equation.

IC50: 33.4 µM
SMILES: O=C(CCCN1CCC(O)(c2ccc(Cl)cc2)CC1)c1ccc(F)cc1 [haloperidol]
